B1: GDNF: glial cell line-derived neurotrophic factor, the major ligand of GFRα1 (protein, UniProt P39905 78-211, looked up)
Glial cell line-derived …: SPDKQMAVLPRRERNRQAAAANPENSRGKGRRGQRGKNRGCVLTAIHLNVTDLGLGYETKEELIFRYCSGSCDAAETTYDKILKNLSRNRRLVSDKVGQACCRPIAFDDDLSFLDDNLVYHILRKHSAKRCGCI

System: GFRα1-overexpressing MG-63 cells
Assay: WST-1 cell viability of GFRα1-overexpressing osteosarcoma cells
Assay type: cell-based, human
Description: FIG. 3. GFRα1-induced autophagy enhances the chemoresistance of osteosarcoma cells induced by cisplatin. (a) Control and GFRα1-deficient MG-63 cells were transiently transfected with a mRFP-GFP tandem fluorescent-tagged LC3 (mRFP-GFP-LC3) vector and then treated with cisplatin (20μM) for 24 hr. Left, representative images of RFP-LC3 and GFP-LC3 puncta. Scale bar, 20 μm. Right, quantitative analysis of the number of yellow puncta and the number of RFP-LC3 puncta in the combined images. The values are represented as a mean±s.d.m. (n=3). ** denotes p<0.05 by t-test. (b) Control and GFRα1-deficient MG-63 cells were treated with cisplatin (20 μM) for 24 hr and then stained with acridine orange. Top, representative images of cells stained with acridine orange. Scale bar, 20 μm. Bottom, quantitative analysis of the number of AVOs. The values are represented as a mean±s.d.m. (n=3). ** denotes p<0.05 by t-test. (c) Control and GFRα1-deficient MG-63 cells were treated with cisplatin (20 μM) for 24 hr and then analyzed by TEM. Top, representative images of autophagic vacuoles (yellow arrows) detected after cisplatin treatment in control MG-63 cells. Scale bar, 100 nm. Bottom, quantitative analysis of the number of autophagic vacuoles. The values are represented as a mean±s.d.m. (n=3). ** denotes p<0.05 by t-test. (d) Immunoblot analysis of control and GFRα1-overexpressing osteosarcoma cell lysates with antibodies specific for GFRα1, LC3 and β-actin. […] (e) Quantitative analysis of the number of yellow puncta and the number of RFP-LC3 puncta in control and GFRα1-overexpressing MG-63 cells. […] Bottom, quantitative analysis of the number of AVOs. […] (h) Control and GFRα1-overexpressing MG-63 cells were treated with cisplatin (20 μM) for 24 hr and then analyzed by TEM. Top, representative images of autophagic vacuoles detected after cisplatin treatment in control and GFRα1-overexpressing MG-63 cells. […] Bottom, quantitative analysis of the number of autophagic vacuoles. […] Cell viability was measured using the WST-1 assay. […] Cell viability was measured using the WST-1 assay. […]

Row | Molecule | increase of cell proliferation in GFRα1 overexpressing cells (with DMSO, 3-MA or Baf, then cisplatin 20 μM 24 hr) | GFRα1-mediated cell survival after cisplatin treatment (Cisplatin+GDNF (50 ng/ml), 24 h)
1 | Cn1cnc(N)c2ncnc1-2 [3-MA, 3-methyladenine] | blocked | 
2 | B1 |  | did not have an effect
